In patent US6143763A, “Carbostyril derivatives” (D. Western Therapeutics Institiute, priority 1995, dated 2000):

What was measured:
[1] = tested on: death induced by pulmonary infarction in mice; test: Antithrombotic activity: inhibition of death by collagen-induced pulmonary infarction in mice; type: in vivo, male ICR mice; details: Mus musculus, 1 h; 30 mg/kg oral, 10 minutes before i.v. collagen; lethality in an hour; read-out: Pulmonary infarction inhibitory activity
Source text: Pharmacological Experiment 2 Antithrombotic activity
Antithrombotic activity of the test compounds was estimated by an inhibitory activity of the test compound by oral administration against death induced by pulmonary infarction in mice which was introduced by intravenous administration of collagen (pulmonary infarction inhibitory activity).
Male ICR mice (5-week old, body weight; about 25 g) was fasted overnight, and separated into groups (15 mice per each group) and numbered. A test compound solution, which was prepared by suspending a test compound in 1% hydroxypropylmethyl cellulose 2910 TC-5 (HPMC, manufactured by Shin-etsu Chemical Co., Ltd.), was orally administered to the mice, and 10 minutes thereafter, a collagen solution (the method for preparation thereof and a dose thereof are explained hereafter) was injected to the mice at the tail vein at the constant rate. The lethality of the mice was determined by the number of mice which were died in an hour after the administration of collagen solution. The antithrombotic activity of the test compound was estimated by the inhibitory rate (%) of the lethality of the mice. The collagen solution was prepared by dissolving collagen (Type III, manufactured by Sigma Chemical Ltd.) in 0.05 M acetic acid solution containing 2 mM calcium chloride and 5% glucose at 4° C. so that the final concentration of collagen was adjusted to 2.5 mg/ml, and then the pH value thereof was adjusted to pH 7.4 with sodium hydroxide the day before the experiment. The collagen solution was incubated with stirring at 37° C. for two hours, and then further stirred at room temperature overnight. Just before the experiment, the pH value of the collagen solution was adjusted again to pH 7.4. The amount of the collagen solution which was injected at the tail vein was previously determined so that the lethality by pulmonary infarction induced thereby became about 75%.

[2] = tested on: left common carotid artery injured by balloon; test: Intima thickening inhibitory activity after balloon injury (3H-thymidine in carotid artery); type: in vivo, male SD rats; details: Rattus norvegicus, oral
Procedure: Pharmacological Experiment 3 Intima thickening inhibitory activity
Male SD rats (6-week old) were separated into groups (8 rats per each group) and numbered. A test compound solution, which was prepared by suspending a test compound in 1% hydroxypropylmethyl cellulose 2910 TC-5 (HPMC, manufactured by Shin-etsu Chemical Co., Ltd.) was orally administered to the rats. In the control group, 1% HPMC solution was orally administered instead of the test compound solution. One or two hours thereafter, two french balloon catheters (manufactured by Baxter Travenol Inc.) were inserted into the left common carotid artery of the rats, and the artery was injured by abrading five times with a balloon. The day of balloon abrasion was considered as Day 0. On the following day (Day 1), a test compound was orally administered to the rats two times a day (in the morning and in the evening). On Day 2, 1.48 MBq/ml of ^3 H-thymidine (dose: 5 ml/kg, manufactured by NEN Research Products, Ltd.) was injected at the tail vein of the rats about one hour after the administration of the test compound so that the time after the balloon injury was fixed to the same in each rat. Precisely 45 minutes after the injection of ^3 H-thymidine at the tail veil, the common carotid artery of the rats was taken out.
In the test compound-treated group, only the left common carotid artery which was injured by balloon was taken out, and in the control group, both the left and right common carotid arteries were taken out. The common carotid artery thus obtained was cut to pieces of exact 1 cm long, and the unnecessary portions such as the outer membrane or the nerves were completely removed. The common carotid artery was put into a glass vial, and thereto was added a 0.5 N sodium hydroxide (0.5 ml), and the mixture was incubated at 37° C. overnight to be solubilized. The mixture was neutralized with a 5 N hydrochloric acid (0.05 ml), and thereto was further added an aqueous hydrogen peroxide solution (0.1 ml). Aquasol II (10 ml, manufactured by Du Pont Co.) was added thereto, and the mixture was well stirred and then allowed to stand for 30 minutes. The radioactivity of tritium in the mixture was counted by liquid scintillation counter. The intima thickening inhibitory activity of the test compound was calculated by the following equation. [formula] L (c): The amount of tritium in the left common carotid artery in the control group (dpm)
R (c): The amount of tritium in the right common carotid artery in the control group (dpm)
L: The amount of tritium in the left common carotid artery in the test compound-treated group (dpm)

[3] = tested on: platelet aggregation (collagen); test: Platelet aggregation inhibitory activity, collagen-induced (Born's turbidimetry, rabbit PRP); type: cell-based, male rabbit (NZW); details: Oryctolagus cuniculus, collagen 20 μg/ml final, 37° C.
Procedure: (§1) Pharmacological Experiment 1 Platelet aggregation inhibitory activity
(§2) (1) Preparation of platelet rich plasma (PRP):
(§3) The blood was collected from the carotid of a male rabbit without anesthesia (NZW species, body weight; 2-3 kg) with mixing thereof with 1/10 volume of citric acid. The blood thus obtained was separated and put into plastic test tubes (each about 7 ml), and centrifuged at 900 rpm for 15 minutes at room temperature to give a turbid supernatant as a platelet rich plasma (PRP). The residue from which PRP is separated was centrifuged at 3000 rpm for 10 minutes, and the supernatant was collected as a platelet poor plasma (PPP). The PRP was diluted with PPP so that the concentration thereof was adjusted to […], and used in the platelet aggregation inhibitory activity test.
(§4) (2) Method for platelet aggregation inhibitory activity test:
(§5) The platelet aggregation was tested according to Born's turbidimetry. That is, a test compound was dissolved in dimethylformamide, and the test compound solution (1 μl) thus obtained was put into a cuvette, and thereto was further added PRP (200 μl). Immediately thereafter, the cuvette was set into an apparatus for determining platelet aggregation activity, PAM-8T (manufactured by Mevanix Inc.), and the mixture was incubated at 37° C. Precisely three minutes thereafter, a solution of adenosine diphosphate (ADP, PA test ADP [MCM], purchased by MC Medical Ltd.) in physiological saline solution or a collagen solution (Collagenreagent Horm, purchased by MC Medical Ltd.) (20 μl) was added thereto. The final concentration of the ADP solution or the collagen solution was 7.5 μM or 20 μg/ml, respectively.
(§6) The maximum aggregation rate and the aggregation inhibitory rate were calculated by the following equations. [formula]
(§7) IC50, which is a concentration of the test compound being required to inhibit the platelet aggregation reaction by 50%, was determined from the aggregation inhibitory rates at two different concentrations of a test compound.

[4] = biological target: T1, cGMP-inhibited cAMP phosphodiesterase (PDE3) (Homo sapiens, UniProt Q14432); test: cGMP-inhibited cAMP phosphodiesterase (PDE3) inhibitory activity; type: biochemical; details: 0.4 μM [8-3H]cAMP, pH 8.0, 30° C., 15 minutes; recombinant enzyme from Sf9; read-out: PDE inhibitory activity IC50
T1 construct: made in house; host or cells: insect cell Sf9, baculovirus expression system

[5] = tested on: platelet aggregation (ADP); test: Platelet aggregation inhibitory activity, ADP-induced (Born's turbidimetry, rabbit PRP); type: cell-based, male rabbit (NZW); details: Oryctolagus cuniculus, ADP 7.5 μM final, 37° C.
Procedure: as §1, §2, §3, §4, §5, §6, §7

T1 sequence (Q14432 whole entry): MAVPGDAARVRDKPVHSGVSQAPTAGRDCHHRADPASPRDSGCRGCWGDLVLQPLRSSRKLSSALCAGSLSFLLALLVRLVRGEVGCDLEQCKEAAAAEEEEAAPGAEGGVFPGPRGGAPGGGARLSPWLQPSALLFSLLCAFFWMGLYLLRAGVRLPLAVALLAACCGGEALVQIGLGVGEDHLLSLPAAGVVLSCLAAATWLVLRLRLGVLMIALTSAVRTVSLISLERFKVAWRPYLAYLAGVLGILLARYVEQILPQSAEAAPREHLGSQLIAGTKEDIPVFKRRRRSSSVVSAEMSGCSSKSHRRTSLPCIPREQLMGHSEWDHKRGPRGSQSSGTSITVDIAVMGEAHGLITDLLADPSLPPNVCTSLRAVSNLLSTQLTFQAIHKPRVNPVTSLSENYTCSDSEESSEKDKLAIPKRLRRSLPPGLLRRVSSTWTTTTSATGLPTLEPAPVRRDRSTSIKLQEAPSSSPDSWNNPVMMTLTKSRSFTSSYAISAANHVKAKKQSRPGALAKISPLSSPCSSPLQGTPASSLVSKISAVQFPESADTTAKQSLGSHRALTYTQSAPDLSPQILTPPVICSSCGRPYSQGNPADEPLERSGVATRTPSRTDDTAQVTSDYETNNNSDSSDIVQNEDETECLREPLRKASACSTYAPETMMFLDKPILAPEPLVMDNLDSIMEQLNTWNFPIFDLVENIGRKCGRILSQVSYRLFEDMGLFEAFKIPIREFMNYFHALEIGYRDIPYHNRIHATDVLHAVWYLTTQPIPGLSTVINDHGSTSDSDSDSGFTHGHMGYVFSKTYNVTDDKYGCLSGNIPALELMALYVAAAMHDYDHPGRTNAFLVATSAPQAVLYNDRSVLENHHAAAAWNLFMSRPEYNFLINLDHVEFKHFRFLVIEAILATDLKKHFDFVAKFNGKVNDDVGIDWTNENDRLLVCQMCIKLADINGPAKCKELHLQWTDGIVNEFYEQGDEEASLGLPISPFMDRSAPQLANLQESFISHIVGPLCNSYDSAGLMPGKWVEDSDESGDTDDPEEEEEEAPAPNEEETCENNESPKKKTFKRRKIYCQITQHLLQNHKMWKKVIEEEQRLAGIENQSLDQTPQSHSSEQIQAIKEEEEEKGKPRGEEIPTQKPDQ

SMILES | inhibition in vivo at 30 mg/kg [1] | inhibition in vivo at 30 mg/kg [2] | IC50 [3] | IC50 [4] | IC50 [5] | inhibition in vivo at 10 mg/kg [2]
CN(NC(=O)NCCCOc1ccc2[nH]c(=O)ccc2c1)C1CCCCC1 [Ex. 28] | 100% | 27.8% | 100 nM | 0.826 nM | 110 nM | –
CN(C(=O)N(CCCO)CCCOc1ccc2[nH]c(=O)ccc2c1)C1CCCCC1 [Ex. 22] | 69% | – | 2800 nM | – | 1310 nM | –
O=C(NCCCOc1ccc2[nH]c(=O)ccc2c1)NN(C1CCCCC1)C1CC1 [Ex. 29] | 91% | 29.3% | 30 nM | – | 10 nM | –
CCC(CN(C(=O)N(C)CCCOc1ccc2[nH]c(=O)ccc2c1)C1CCCCC1)OC(C)=O (stereo not drawn) [Ex. 14, 6-{3-[1-methyl-3-cyclohexyl-3-(2-acetyloxybutyl)ureido]propoxy}carbostyril] | 66% | 15.7% | 2200 nM | – | 1500 nM | –
O=C(NCCCOc1ccc2[nH]c(=O)ccc2c1)N(C1CCCCCCC1)[C@@H]1CCCC[C@H]1O (relative stereo) [Ex. 24] | 100% | – | 30 nM | 0.647 nM | 80 nM | –
O=C(NCCCOc1ccc2[nH]c(=O)ccc2c1)N(C1CC1)[C@@H]1CCCC[C@H]1O [Ex. 9, (R,R)-(-)-6-{3-[3-(trans-2-hydroxycyclohexyl)-3-cyclopropylureido]propoxy}carbostyril] | 100% | – | 2000 nM | 93 nM | 1900 nM | 26.8%
CCCN(CCCOc1ccc2[nH]c(=O)ccc2c1)C(=O)N(C)C1CCCCC1 [Ex. 23, 6-[3-(3-cyclohexyl-3-methyl-1-propylureido)propoxy]carbostyril] | 90% | – | 2510 nM | – | 13400 nM | –
CCC(CN(C(=O)NCCCOc1ccc2[nH]c(=O)ccc2c1)C1CCCCC1)OCc1ccccc1 (stereo not drawn) [Ex. 20] | 66% | – | 290 nM | – | 220 nM | –
O=C1CCc2cc(OCCCNC(=O)N(C3CC3)[C@@H]3CCCC[C@H]3O)cc(F)c2N1 (relative stereo) [Ex. 25] | 100% | – | 3900 nM | – | 4650 nM | –
O=C(NCCCOc1ccc2nc(O)ccc2c1)N(C1CC1)[C@H]1CCCC[C@@H]1O [Ex. 8, (S,S)-(+)-6-{3-[3-(2-Hydroxycyclohexyl)-3-cyclopropylureido]propoxy}-carbostyril] | 100% | 13.3% | 2000 nM | 113 nM | 2100 nM | –
CCOC(CC)CN(C(=O)NCCCOc1ccc2[nH]c(=O)ccc2c1)C1CCCCC1 (stereo not drawn) [Ex. 19] | 84% | 23.4% | 590 nM | – | 180 nM | –
O=C(NCCCCOc1ccc2[nH]c(=O)ccc2c1)N(C1CC1)[C@@H]1CCCC[C@H]1O [Ex. 31] | 48% | – | 2570 nM | – | 15700 nM | –
C=CCN(CCCOc1ccc2[nH]c(=O)ccc2c1)C(=O)N(C)C1CCCCC1 [Ex. 16, 6-[3-(3-Cyclohexyl-3-methyl-1-allylureido)propoxy]carbostyril] | 77% | 33.3% | 20000 nM | – | 4600 nM | –
CC(O)CN(CCCOc1ccc2[nH]c(=O)ccc2c1)C(=O)N(C)C1CCCCC1 (stereo not drawn) [Ex. 21] | 59% | – | 3250 nM | – | 2080 nM | –
CCN(CCCOc1ccc2[nH]c(=O)ccc2c1)C(=O)N(C)C1CCCCC1 [Ex. 15] | 86% | 11.9% | 16100 nM | – | 15200 nM | –
CCC(CN(C(=O)NCCCOc1ccc2[nH]c(=O)ccc2c1)C1CCCCC1)OC(C)=O (stereo not drawn) [Ex. 11] | 80% | 33% | 2100 nM | – | 600 nM | –
O=C(NCCCOc1ccc2[nH]c(=O)ccc2c1)N(C1CCCCCC1)[C@@H]1CCCC[C@H]1O (relative stereo) [Ex. 18] | 69% | 19% | 30 nM | – | 120 nM | –
COc1cc(OCCCNC(=O)N(C2CC2)[C@@H]2CCCC[C@H]2O)cc2ccc(=O)[nH]c12 (relative stereo) [Ex. 27] | 80% | – | 31600 nM | 2180 nM | 31600 nM | –
CCC(O)CN(C(=O)N(C)CCCOc1ccc2[nH]c(=O)ccc2c1)C1CCCCC1 (stereo not drawn) [Ex. 13, 6-{3-[1-methyl-3-cyclohexyl-3-(2-hydroxybutyl)ureido]propoxy}carbostyril] | 58% | 16.6% | 2000 nM | – | 2100 nM | –
O=C(NCCOc1ccc2[nH]c(=O)ccc2c1)N(C1CC1)[C@@H]1CCCC[C@H]1O (relative stereo) [Ex. 30] | 100% | – | 2940 nM | – | 3670 nM | –
CC(=O)O[C@@H]1CCCC[C@H]1N(C(=O)NCCCOc1ccc2[nH]c(=O)ccc2c1)C1CC1 (relative stereo) [Ex. 7, 6-{3-[3-(trans-2-acetyloxycyclohexyl)-3-cyclopropylureide]propoxy}carbostyril] | 67% | 15.2% | 2100 nM | – | 18200 nM | –
O=C(NCCCOc1ccc2[nH]c(=O)ccc2c1)N(C1CC1)[C@@H]1CCCC[C@H]1O (relative stereo) [Ex. 6, 6-{3-[3-(trans-2-hydroxycyclohexyl)-3-cyclopropylureido]propoxy}carbostyril] | 100% | – | 1900 nM | – | 1800 nM | 31.4%
